Reference: US6306613A, “Modulators of leaderless protein export and methods for identifying and using the same” (Ciblex Corporation, priority 1999, dated 2001)

How the values were obtained:
[1] = tested on: secretion of hCG-α from COS cells; details: cited from earlier work
[2] = tested on: export of 18 kD FGF-2 from COS cells; details: 25 μg/ml in chase medium; cited from earlier work
[3] = tested on: export of F-gal (FGF-2 β-gal chimeric protein) from COS cells; assay: Export of F-gal chimera from COS cells; assay type: cell-based
[4] = tested on: export of FPT (FGF-2 neomycin phosphotransferase chimeric protein) from COS cells; assay: Export of FPT chimera from COS cells; assay type: cell-based
[5] = tested on: FGF-2 export from Na+/K+ ATPase α1 co-transfected COS cells; assay: FGF-2 export from COS cells co-transfected with rat Na+/K+ ATPase α1; assay type: cell-based; details: twenty-four hours post labeling
[6] = tested on: VSV N protein export from COS cells; assay type: cell-based
[7] = tested on: export of 18 kD FGF-2 from COS cells; assay: FGF-2 export from transfected COS cells, pulse-chase and immunoprecipitation; assay type: cell-based; details: for inhibition of export of FGF-2 / IC50: COS cells; for inhibition of export of FGF-2: 10 nM to 1 mM in chase; for IC50: FGF-2 export, modulator in chase medium, read-out: concentration that inhibits 50% of leaderless protein export
Experimental: For an immunoprecipitation assay after transfection, the COS cells are metabolically pulse-labeled for 15 minutes with 100 μCi of ^35 S-methionine and ^35 S-cysteine (Trans ^35 S-label, ICN Biomedicals, Irvine, Calif.) in 1 ml of methionine and cysteine free DMEM. Following labeling, the cell monolayers are washed once with DMEM supplemented with excess (10 mM) unlabeled methionine and cysteine for 1-2 minutes. Cells are then cultured in 2 ml of this medium for the indicated lengths of time and the cell supernatants are immunoprecipitated for the presence of leaderless protein. For the indicated cultures, chase medium is supplemented with modulator at the indicated concentrations.
COS cells are cultured in Dulbecco's Modified Eagle Medium (DMEM, University of California San Diego Core Facility) supplemented with 10% fetal bovine serum (Gemini Bioproducts, Inc.), 2 mM L-glutamine, 1 mM sodium pyruvate, 0.1 mM non-essential amino acids, 100 units/ml penicillin, and 100 units/ml streptomycin. An SV-40-based expression vector containing the wild type (human) cDNA encoding multiple FGF-2 isoforms (24, 23, 22 and 18-kD) has been described previously (Florkiewiczand Sommer, supra). Approximately 3×10^5 COS cells in a 60 mm tissue culture dish are transfected with 10 μg of CsCl-purified plasmid DNA mixed with 1.0 ml of transfection buffer (140 mM NaCl, 3 mM KCl, 1 mM CaC'2, 0.5 mM MgCl2, 0.9 mM Na2 HPO4, 25 mM Tris pH 7.4; all from Sigma Chemical Company, Stl. Louis, Mo.). Under these co-transfection conditions using 2 μg of p18dx plus 10 μg pMAMneo, greater than 70% of transfected cells express both proteins, as determined by immunofluorescence microscopy. The ratio of plasmid DNA may be varied with an insignificant change in results. Forty to 48 hours post-DNA transfection COS cells are metabolically pulse-labeled for 15 minutes with 100 μCi of ^35 S-methionine and ^35 S-cysteine (Trans^35 S-label, ICN Biomedicals, Inc.) in 1.0 ml of methionine-and cysteine-free DMEM. After pulse-labeling, the cell monolayers are washed once with DMEM supplemented with excess (10 mM) unlabeled methionine and cysteine (Sigma Chemical Company) and then cultured in 1.0 ml of the same medium (chase) for the indicated lengths of time. Cultures treated with brefeldin A include 15 μg/ml of brefeldin A in the chase medium. Chase medium is also supplemented with 25 μg/ml heparin (Sigma Chemical Company). Although heparin is not necessary to qualitatively detect FGF-2 export, it is necessary in order to quantitatively detect the export of FGF-2 in this assay.
Cell and medium fractions are prepared for immunoprecipitation essentially as described previously (Florkiewicz et al., 1991) except that 400 μl of lysis buffer without NaCl (1% NP-40, 0.5% deoxycholate, 20 mM Tris pH 7.5, 5 mM EDTA, 2 mM EGTA, 0.01 mM phenylinethylsufonyl fluoride, 10 ng/ml aprotiniul, 10 ng/ml leupeptin, and 10 ng/ml pepstatin) is added to the medium fraction clarified by microfuge centrifugation for 15 minutes at 4° C. before adding immune serum. Both cell and medium fractions are incubated with a 1:200 dilution of guinea pig anti-FGF-2 immune serum (prepared in our laboratory) at 21° C. for 40 minutes and then GammaBind G Sepharose® (Pharmacia LKB Biotechnology) is added for an additional 30 minute incubation. […]

[8] = tested on: export of FGF-2 mutein Arg118Ile from COS cells; assay: FGF-2 mutein export with ouabain, Arg118Ile; assay type: cell-based
[9] = tested on: export of FGF-2 mutein Cys78Ser + Cys96Ser (C78,96S) from COS cells; assay: FGF-2 mutein export with ouabain, Cys78Ser + Cys96Ser; assay type: cell-based
[10] = tested on: export of FGF-2 mutein Arg53Trp (R53W) from COS cells; assay: FGF-2 mutein export with ouabain, Arg53Trp; assay type: cell-based
[11] = tested on: secretion of hCG-α from COS cells; assay: hCG-α secretion from transfected COS cells (leader sequence control); assay type: cell-based
Experimental: An expression vector encoding hCG-cc (Guan et al., J. Biol. Chem. 263:5306-5313, 1988), which has a signal sequence, is used as a control to monitor proteins trafficked through the ER/Golgi.
COS cells are co-transfected as described above with plasmids expressing FGF-2, hCG-α, or neomycin phosphotransferase. Metabolic labeling is performed as described above, except that during the chase period, modulator that inhibits export is added at 10 nM to 1 mM in log increments. At the end of the chase, cells and cell media are harvested and processed for immune precipitations as described above.

[12] = tested on: export of FGF-2 mutein Lys144Val (K144V) from COS cells; assay: FGF-2 mutein export with ouabain, Lys144Val; assay type: cell-based
[13] = tested on: export of FGF-2 mutein Lys134Thr (K134T) from COS cells; assay: FGF-2 mutein export with ouabain, Lys134Thr; assay type: cell-based
[14] = tested on: IL-1α export from COS cells; assay: IL-1α export from transfected COS cells; assay type: cell-based; details: 5 mM
Text: A vector containing a leaderless protein gene. IL-1α, is transfected into COS cells. Cells are metabolically labeled and protein precipitated with anti-IL-1α antibody. […] In contrast to the export of FGF-2, the rate of IL-1 export is slower, having a T1/2 of greater than 24 hrs. […] In addition, IL-1α can be immunoprecipitated from co-transfected COS cells (transfected with IL-1α and the Na/K ATPase α1 subunit) using anti-α1 subunit antibody (FIG. 4).

SMILES: C[C@H]1CCC/C=C/[C@@H]2C[C@H](O)C[C@H]2[C@H](O)/C=C/C(=O)O1 [Brefeldin A]
- sensitivity of hCG-α secretion [1]: brefeldin sensitive
- effect on FGF-2 export [2]: no substantial effect

SMILES: C[C@@H]1O[C@@H](O[C@H]2C[C@@H](O)[C@]3(CO)[C@H]4[C@H](O)C[C@]5(C)[C@@H](C6=CC(=O)OC6)CC[C@]5(O)[C@@H]4CC[C@]3(O)C2)[C@H](O)[C@H](O)[C@H]1O [Ouabain]
- inhibition of export of F-gal [3]: can be inhibited
- inhibition of export of FPT [4]: can be inhibited
- FGF-2 in media at 1 mM [5]: significant amounts of FGF-2 can be detected in media
- sensitivity of N protein export [6]: ouabain-resistant
- inhibition of FGF-2 export at 1 mM ([7]; 1 mM, FGF-2 only transfected COS cells): completely inhibit
- inhibition of export of FGF-2 [7]: inhibit
- IC50 [7]: ~0.1 µM
- Effect of Ouabain on Export [8]: decrease
- FGF-2 in Cells, 7 hr (+) Ouabain [8]: 79%
- FGF-2 in Media, 7 hr (+) Ouabain [8]: 21%
- FGF-2 in Cells, 7 hr (+) Ouabain ([9]; C78,96S): 62%
- FGF-2 in Media, 7 hr (+) Ouabain ([9]; C78,96S): 38%
- Effect of Ouabain on Export ([9]; Cys78Ser + Cys96Ser): decrease
- Effect of Ouabain on Export ([10]; Arg53Trp): decrease
- FGF-2 in Cells, 7 hr (+) Ouabain ([10]; R53W): 70%
- FGF-2 in Media, 7 hr (+) Ouabain ([10]; R53W): 30%
- effect on secretion of hCG-α [11]: does not affect secretion of hCG-α
- FGF-2 in Cells, 7 hr (+) Ouabain ([12]; K144V): 70%
- FGF-2 in Media, 7 hr (+) Ouabain ([12]; K144V): 30%
- Effect of Ouabain on Export ([12]; Lys144Val): decrease
- FGF-2 in Cells, 7 hr (+) Ouabain [13]: 70%
- FGF-2 in Media, 7 hr (+) Ouabain [13]: 30%
- inhibition of IL-1α export [14]: inhibted

SMILES: C[C@H]1O[C@@H](O[C@H]2[C@@H](O)C[C@H](O[C@H]3[C@@H](O)C[C@H](O[C@H]4CC[C@@]5(C)[C@H](CC[C@@H]6[C@@H]5C[C@@H](O)[C@]5(C)[C@@H](C7=CC(=O)OC7)CC[C@]65O)C4)O[C@@H]3C)O[C@@H]2C)C[C@H](O)[C@@H]1O [digoxin]
- inhibition of export of FGF-2 [7]: inhibit
- IC50 [7]: ~5 µM
